Experimental data reported in paper PMC3098219, “Protective Efficacy of Serially Up-Ranked Subdominant CD8^+ T Cell Epitopes against Virus Challenges” (PLoS Pathogens, 2011).
Entries after “also recorded” stand apart in the source; their conditions may differ.

How the values were obtained:
CD8^+CD107a/b^+ T cells = test: Multicolour flow cytometry after mixed or split vaccination; type: cell-based, BALB/c mice
[1] = test system: CD8^+ splenocytes of immunized mice; type: cell-based, BALB/c mice; conditions: HIVAdH vs HIVA immunization; ex vivo ICS, Figure 1D
[2] = test system: syngeneic peptide-pulsed cells; test: in vivo killing assay (lysis of syngeneic peptide-pulsed cells); parameters: species or system BALB/c mice; conditions: HIVAdH vaccinated relative to HIVA vaccination; Figure 1F
[3] = test system: H-2D^d, H-2K^d or H-2L^d complexes; test: T2 peptide binding assay, respective MHC class I complexes; conditions: Figure 3A; TAP-deficient T2 cells, 100 µM to 0.1 µM peptide, 14 h at 37°C, FACS
Protocol: Figure 3 Contributing mechanisms of immunodominance. […] T2 cell lines were incubated with decreasing peptide concentrations ranging from 100 µM to 0.1 µM indicated above the H peptide histogram and the cell surface peptide-loaded MHC complexes were detected by fluorochrome-conjugated mAb (DB Biosciences) and quantified using FACS flow cytometer. B) and C) Groups of 3 BALB/c mice were given 3x immunizations using 100 µg of DNA expressing the index or mutated forms of HIVA at 3 wk intervals and their T cell responses were analyzed 4 wk later. B) Splenocytes were assessed in an ICS assay using peptides indicated above the graphs at concentrations ranging from 10 to 10^−8 µM for 5 h. Cells were gated on IFN-γ-producing CD8^+ T cell populations positive (top) or negative (bottom) for CD107a/b. Note the different y-axis scales on the top and bottom graphs. C) The response kinetics of CD8^+ T cells re-stimulated with 0.1 µM peptides was assessed in an ICS assay in 1-h intervals for a period of 4 h. Data shown are as mean±SD of [CD8^+CD107a/b^+IFN-γ^+ cells at each time point (%)] ÷ [CD8^+CD107a/b^+IFN-γ^+ at 4 h (%)]. One out of two independent experiments is shown.
TAP2 ([…])-deficient T2 cell lines stably expressing D^d, K^d, and L^d molecules kindly provided by Dr. Ted Hansen (Washington university, U.S.A.) were used to assess the ability of MHCs to bind each peptide. In brief, 1×10^5 cells were incubated with 0/0.1/1.0/10/100 µM peptides in no-serum RPMI (R-0) for 14 h at 37°C, 5% CO2 in a flat-bottomed 96-well plate. 14 h later, cells were transferred to a round-bottomed 96-well plate and washed with PBS before staining the cells with anti-H-2K^d/H-2D^d-PE or anti-H-2L^d-PE (eBioscience) monoclonal antibodies. Cells were then analyzed on a FACS flow cytometer.

[4] = test system: splenocytes of pTHr.HIVA immunized mice; test: IFN-γ ELISPOT immunogenicity of HIVA; type: cell-based, BALB/c mice; conditions: Figure 1B and D top
[5] = test system: CD8^+ splenocytes of DNA-immunized mice; test: ICS T cell avidity (peptide titration, CD107a/b and IFN-γ); type: cell-based, BALB/c mice; conditions: Figure 3B; individual determinants when dominant: H in group HIVA, P in HIVAdH, G1 in dHmP, NPP in dHmPG1; 3x 100 µg DNA; 5 h
Protocol: T2 cell lines were incubated with decreasing peptide concentrations ranging from 100 µM to 0.1 µM indicated above the H peptide histogram and the cell surface peptide-loaded MHC complexes were detected by fluorochrome-conjugated mAb (DB Biosciences) and quantified using FACS flow cytometer. B) and C) Groups of 3 BALB/c mice were given 3x immunizations using 100 µg of DNA expressing the index or mutated forms of HIVA at 3 wk intervals and their T cell responses were analyzed 4 wk later. B) Splenocytes were assessed in an ICS assay using peptides indicated above the graphs at concentrations ranging from 10 to 10^−8 µM for 5 h. Cells were gated on IFN-γ-producing CD8^+ T cell populations positive (top) or negative (bottom) for CD107a/b. Note the different y-axis scales on the top and bottom graphs. C) The response kinetics of CD8^+ T cells re-stimulated with 0.1 µM peptides was assessed in an ICS assay in 1-h intervals for a period of 4 h. Data shown are as mean±SD of [CD8^+CD107a/b^+IFN-γ^+ cells at each time point (%)] ÷ [CD8^+CD107a/b^+IFN-γ^+ at 4 h (%)]. One out of two independent experiments is shown.
We also measured avidities of T cell responses recovered through the sequential HIVA epitope up-ranking. First, responsiveness of immune splenocytes following 3 plasmid DNA deliveries was measured in an ICS assay upon re-stimulation with peptide concentrations ranging from 10^−8 to 10 µM for 5 h (Figure 3A).

CD8^+ T cells [6] = test: ICS of HIVB-induced responses pre- and post-EcoHIV challenge; conditions: Figure 7B, pTH.HIVB DNA twice
H-2K^d = H-2K^d (Mus musculus, UniProt P01902); conditions: ref [34]; cited from earlier work
H-2K^d, sequence (P01902 whole entry, looked up): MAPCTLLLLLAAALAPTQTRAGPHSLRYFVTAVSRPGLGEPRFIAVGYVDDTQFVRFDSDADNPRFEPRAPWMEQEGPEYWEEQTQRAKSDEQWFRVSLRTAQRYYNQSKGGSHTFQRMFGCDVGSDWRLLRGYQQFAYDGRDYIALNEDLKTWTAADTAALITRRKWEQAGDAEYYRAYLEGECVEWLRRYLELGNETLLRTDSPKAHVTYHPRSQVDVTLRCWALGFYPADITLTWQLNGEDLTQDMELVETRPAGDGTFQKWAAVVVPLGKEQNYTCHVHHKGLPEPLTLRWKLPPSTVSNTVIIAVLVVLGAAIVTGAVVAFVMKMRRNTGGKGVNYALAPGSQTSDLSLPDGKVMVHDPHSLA
Source text: Our research interests lie in development of the T cell component of HIV-1 vaccines stimulating protective CD8^+ T cell responses. The first-generation T cell immunogen, designated HIVA (Figure 1A), has served as an extremely useful tool for iterative improving of CD8^+ T cell induction by experimental vaccines in mice, non-human primates and humans [reviewed in [30]]. To increase the power of T cell analysis and study the role of subdominant determinants, H-2^d class I-restricted epitopes contained in the HIVA immunogen were mapped in detail. Thus, the most immunodominant epitope of ...

EcoHIV/NDK = EcoHIV/NDK challenge; conditions: Figure 7C and D; 2x 100 µg DNA, challenge 5 d later; splenocytes and peritoneal macrophages, qPCR
CD8^+ T cells [7] = test: Immunodominance hierarchy of T cell responses to HIVA-derived epitopes; type: cell-based, BALB/c mice; conditions: 10 d after immunization

## AMQMLKDTI [G1, H-2K^d-restricted, Gag residues 197–205]
CD8^+CD107a/b^+ T cells; Figure 4B groups 4 and 5, HIVA-dHmP and dHmP-HIVA prime-boost, 23-wk rest, WR.HIVA re-stimulation
  G1-specific response relative to epitopes H and P: significantly increased
CD8^+CD107a/b^+ T cells; Figure 4B groups 7 and 9, pre-mixed vaccines injected into 2 sites
  anti-G1 responses: failed to induce anti-G1 responses
[1]
  frequencies of IFN-γ-producing CD8^+ cells: noticeably, though not significantly increased
[2]
  in vivo lysis of peptide-pulsed targets: increased in vivo lysis
[3]
  peptide binding affinities for respective MHC class I: directly correlated with the immunodominance hierarchy
[4]
  T cell response to G1 from HIVA: hardly detectable responses
[5]
  peak IFN-γ^+CD107a/b^+CD8^+ cell frequencies at 10 µM peptide: 3.8 % of total CD8^+ splenocytes
CD8^+ T cells [6]
  CD8^+ T cell response after HIVB vaccination: the only detectable CD8^+ T cell response
H-2K^d
  MHC class I restriction (H-2K^d): H-2K^d-restricted
EcoHIV/NDK
  protection against EcoHIV/NDK challenge: sufficient to induce protective efficacy; also recorded: enhanced clearance of EcoHIV/NDK infection
CD8^+ T cells [7]
  hierarchy of T cell responses against HIVA-derived epitopes: H>P>>G1>NPP>>G2
